According to PMC4769319, “Cohesin Releases DNA through Asymmetric ATPase-Driven Ring Opening” (Molecular Cell, 2016):

Molecular target: T1, Smc1/Smc3 heterodimer with Scc1-C (cohesin) (Saccharomyces cerevisiae, UniProt P32908+P47037, P32908:D1164E, form not given)
T1 construct: N-terminal tags; Sf9 insect cells; fluorescently labelled for MST; with Sister chromatid cohesion protein 1
T1 sequence (P32908 1-1225 D1164E): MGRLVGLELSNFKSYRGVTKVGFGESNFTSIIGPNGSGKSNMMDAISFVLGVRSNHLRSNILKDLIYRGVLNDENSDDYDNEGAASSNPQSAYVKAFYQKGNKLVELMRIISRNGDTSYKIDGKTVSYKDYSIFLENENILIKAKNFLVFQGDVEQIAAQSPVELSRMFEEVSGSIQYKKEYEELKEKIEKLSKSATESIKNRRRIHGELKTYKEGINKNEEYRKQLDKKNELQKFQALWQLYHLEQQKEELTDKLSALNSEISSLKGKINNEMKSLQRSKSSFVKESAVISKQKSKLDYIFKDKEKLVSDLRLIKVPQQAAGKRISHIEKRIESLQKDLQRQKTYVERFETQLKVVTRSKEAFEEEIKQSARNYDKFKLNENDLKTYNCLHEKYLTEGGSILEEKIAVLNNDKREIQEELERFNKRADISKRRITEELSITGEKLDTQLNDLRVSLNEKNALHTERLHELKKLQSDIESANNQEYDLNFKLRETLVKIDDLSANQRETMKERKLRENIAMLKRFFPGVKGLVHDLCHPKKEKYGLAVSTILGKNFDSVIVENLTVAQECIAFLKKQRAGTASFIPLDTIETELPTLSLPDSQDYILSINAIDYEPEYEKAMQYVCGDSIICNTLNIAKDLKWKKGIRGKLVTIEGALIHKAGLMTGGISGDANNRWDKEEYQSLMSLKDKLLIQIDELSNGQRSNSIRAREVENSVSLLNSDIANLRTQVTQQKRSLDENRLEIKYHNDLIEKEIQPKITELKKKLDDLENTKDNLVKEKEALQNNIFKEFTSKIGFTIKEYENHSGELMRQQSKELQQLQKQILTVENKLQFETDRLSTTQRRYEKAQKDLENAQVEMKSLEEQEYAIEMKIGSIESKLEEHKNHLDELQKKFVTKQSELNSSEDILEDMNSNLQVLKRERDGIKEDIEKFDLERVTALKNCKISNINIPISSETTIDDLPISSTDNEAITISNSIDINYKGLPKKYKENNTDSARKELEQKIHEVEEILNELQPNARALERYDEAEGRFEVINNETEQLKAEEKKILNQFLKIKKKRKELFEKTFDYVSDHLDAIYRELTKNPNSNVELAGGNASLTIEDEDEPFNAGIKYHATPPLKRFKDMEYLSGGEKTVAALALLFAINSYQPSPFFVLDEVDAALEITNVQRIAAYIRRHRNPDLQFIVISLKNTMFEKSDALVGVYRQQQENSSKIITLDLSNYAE
T1 sequence (P47037 1-1230): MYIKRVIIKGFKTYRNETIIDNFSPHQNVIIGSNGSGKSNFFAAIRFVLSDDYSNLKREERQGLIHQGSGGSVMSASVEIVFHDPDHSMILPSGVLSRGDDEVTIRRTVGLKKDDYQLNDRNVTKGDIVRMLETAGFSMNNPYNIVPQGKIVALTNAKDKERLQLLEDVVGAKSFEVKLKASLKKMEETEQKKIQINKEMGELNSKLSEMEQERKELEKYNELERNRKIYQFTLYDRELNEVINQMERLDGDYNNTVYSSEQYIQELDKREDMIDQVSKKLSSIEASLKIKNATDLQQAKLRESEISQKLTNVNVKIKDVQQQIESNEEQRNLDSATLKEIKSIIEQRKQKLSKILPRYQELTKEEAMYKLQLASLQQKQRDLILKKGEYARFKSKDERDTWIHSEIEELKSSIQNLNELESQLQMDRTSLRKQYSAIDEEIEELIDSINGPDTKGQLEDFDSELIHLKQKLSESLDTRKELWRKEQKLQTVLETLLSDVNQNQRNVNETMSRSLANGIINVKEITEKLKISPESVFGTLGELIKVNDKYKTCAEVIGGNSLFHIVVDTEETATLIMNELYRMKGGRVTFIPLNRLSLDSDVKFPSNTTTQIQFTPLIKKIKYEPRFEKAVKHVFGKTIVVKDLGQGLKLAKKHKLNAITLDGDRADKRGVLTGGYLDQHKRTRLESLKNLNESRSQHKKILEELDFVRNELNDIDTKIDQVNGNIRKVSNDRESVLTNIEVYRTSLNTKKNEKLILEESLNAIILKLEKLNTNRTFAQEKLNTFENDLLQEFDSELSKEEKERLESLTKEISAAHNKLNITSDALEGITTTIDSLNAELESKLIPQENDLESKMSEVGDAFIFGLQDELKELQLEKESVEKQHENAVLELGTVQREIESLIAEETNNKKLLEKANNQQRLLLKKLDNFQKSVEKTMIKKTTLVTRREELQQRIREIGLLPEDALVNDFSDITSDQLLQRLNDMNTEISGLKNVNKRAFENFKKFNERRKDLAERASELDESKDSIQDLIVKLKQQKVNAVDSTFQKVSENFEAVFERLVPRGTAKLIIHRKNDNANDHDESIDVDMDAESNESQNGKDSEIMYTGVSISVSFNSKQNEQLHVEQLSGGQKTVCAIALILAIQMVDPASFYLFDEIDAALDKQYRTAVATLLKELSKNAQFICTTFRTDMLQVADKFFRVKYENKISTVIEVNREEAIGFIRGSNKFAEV
T1 sequence (Q12158 1-566 partner): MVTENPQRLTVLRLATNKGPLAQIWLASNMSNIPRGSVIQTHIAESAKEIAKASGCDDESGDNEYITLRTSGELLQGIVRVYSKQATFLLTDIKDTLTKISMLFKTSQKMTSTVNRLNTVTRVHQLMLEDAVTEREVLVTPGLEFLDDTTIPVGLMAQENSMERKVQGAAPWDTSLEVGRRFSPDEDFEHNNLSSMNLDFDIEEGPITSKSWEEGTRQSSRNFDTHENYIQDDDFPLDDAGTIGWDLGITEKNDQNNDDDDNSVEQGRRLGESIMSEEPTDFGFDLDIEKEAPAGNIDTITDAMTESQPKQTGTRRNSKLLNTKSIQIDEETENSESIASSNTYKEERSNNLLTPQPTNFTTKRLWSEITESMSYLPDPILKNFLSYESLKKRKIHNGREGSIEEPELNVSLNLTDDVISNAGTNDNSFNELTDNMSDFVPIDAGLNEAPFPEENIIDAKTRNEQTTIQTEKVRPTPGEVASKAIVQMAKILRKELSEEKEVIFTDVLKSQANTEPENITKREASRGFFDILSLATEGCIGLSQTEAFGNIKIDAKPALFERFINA
Experiment: microscale thermophoresis
Type: binding
Settings: fluorescently labelled protein; Smc1 co-purified with Scc1-C, plus Smc3; read-out: affinity
Source text: microscale thermophoresis on Smc1/Smc3 heterodimer with Scc1-C (cohesin) | Smc1 L1129V, D1164E and E1158Q mutants all had wild-type-like affinity to both ATP and ADP | wild-type and mutant cohesin complexes appear to have similar affinities to ADP

Kd [µM]	Compound
542 ± 188	Nc1ncnc2c1ncn2[C@@H]1O[C@H](COP(=O)(O)OP(=O)(O)OP(=O)(O)O)[C@@H](O)[C@H]1O [ATP]
> 1000	Nc1ncnc2c1ncn2[C@@H]1O[C@H](COP(=O)(O)OP(=O)(O)O)[C@@H](O)[C@H]1O [ADP]
